Test results published in ChEMBL document CHEMBL4842340, “Development of Cagrilintide, a Long-Acting Amylin Analogue” (J Med Chem, 2021).
Values after ≈ are worked out from the molar mass of the structure shown. *1 amine or outer side, *2 acyl side, *3 side chain or, on linkers, in order; H or OH if unused. Where a SMILES comes first, the peptide text is derived from it. Bridges are numbered along the chain shown (N, C = ends). [ ]: non-standard residue; d: D form. The star is where a group is joined. X1 = O=C(NC(=O)[C@H](Cc1cnc[nH]1)N[*:1])[C@@H](Cc1cnc[nH]1)C(=O)[*:2]; C20 diacid = O=C(O)CCCCCCCCCCCCCCCCCCC(=O)*; γGlu = O=C(O)[C@H](CCC(=O)[*:2])N[*:1]

Assays:
[1] = Agonist activity at human AMY3R (CT+RAMP3) expressed in Hollex1 cells incubated for 3 hrs by luminescence assay; type: cell-based; details: Hollex1, 3 h
[2] = Agonist activity at human calcitonin receptor expressed in BHK570 cells assessed as increase in intracellular cAMP concentration incubated for 3 hrs in absence of albumin by CRE luciferase reporter gene assay; type: cell-based; details: BHK570, 3 h
Homo sapiens = species on record: Homo sapiens; assay: Ratio of EC50 for human calcitonin receptor expressed in BHK570 cells to EC50 for human AMY3R (CT+RAMP3) expressed in Hollex1 cells; type: cell-based
[3] = Agonist activity at rat AMY3R (CT+RAMP3) expressed in tk-ts13 cells assessed as increase in intracellular cAMP level incuabted for 25 mins by CRE luciferase reporter gene assay; type: cell-based; details: tk-ts13, 25 min
[4] = Agonist activity at rat calcitonin receptor expressed in BHK-13 cells assessed as increase in intracellular cAMP concentration incubated for 25 mins by CRE luciferase reporter gene assay; type: cell-based; details: BHK-13, 25 min
Rattus norvegicus [5] = species on record: Rattus norvegicus; assay: Ratio of EC50 for rat calcitonin receptor expressed in BHK-13 cells to EC50 for rat AMY3R (CT+RAMP3) expressed in tk-ts13 cells; type: cell-based
[6] = Solubility of the compound in lactate at pH 3 by UPLC analysis; type: physicochemical; details: lactate buffer
[7] = Solubility of the compound in lactate at pH 4 by UPLC analysis; type: physicochemical; details: lactate buffer
[8] = Solubility of the compound in lactate at pH 5 by UPLC analysis; type: physicochemical; details: lactate buffer
[9] = Solubility of the compound in bis-tris propane at pH 6 by UPLC analysis; type: physicochemical; details: bis-tris propane buffer
[10] = Solubility of the compound in bis-tris propane at pH 6.5 by UPLC analysis; type: physicochemical; details: bis-tris propane buffer
[11] = Solubility of the compound in bis-tris propane at pH 7 by UPLC analysis; type: physicochemical; details: bis-tris propane buffer
[12] = Solubility of the compound in bis-tris propane at pH 7.5 by UPLC analysis; type: physicochemical; details: bis-tris propane buffer
[13] = Solubility of the compound in bis-tris propane at pH 8 by UPLC analysis; type: physicochemical; details: bis-tris propane buffer
Insulin (Homo sapiens) [14] = biological target: Insulin (Homo sapiens) (UniProt P01308); assay: Effect on insulin (unknown origin) amyloid fibril formation assessed as lag time in glycyl-glycine buffer at pH 4 measured after 45 hrs by thioflavin-T fluorescence assay
Insulin (Homo sapiens) [15] = biological target: Insulin (Homo sapiens) (UniProt P01308); assay: Effect on insulin (unknown origin) amyloid fibril formation assessed as peptide recovery in glycyl-glycine buffer at pH 4 measured after 45 hrs by thioflavin-T fluorescence assay relative to control; design: concentration or dose not given beside the values
Rattus norvegicus [16] = assay: Reduction in food intake in Sprague-Dawley rat at 3 nmol/kg, sc administered as single dose measured upto 24 hrs relative to control; type: functional; design: scale not given: the % may be the effect or the level left; details: time hrs <=24
Rattus norvegicus [17] = assay: Reduction in food intake in Sprague-Dawley rat at 3 nmol/kg, sc administered as single dose measured after 24 to 48 hrs relative to control; type: functional; design: scale not given: the % may be the effect or the level left; details: time 24-48 hrs
[18] = Displacement of [125I]-amylin from human AMY3R (CTR+RAMP3) expressed in BHK-13 cells measured after 120 mins by scintillation proximity assay; type: cell-based
[19] = Displacement of [125I]-calcitonin from human calcitonin receptor expressed in tk-ts 13 cells measured after 120 mins by scintillation proximity assay; type: cell-based; details: tk-ts13
[20] = Displacement of [125I]-amylin from rat AMY3R (CTR+RAMP3) expressed in BHK-13 cells measured after 120 mins by scintillation proximity assay; type: cell-based
[21] = Displacement of [125I]-calcitonin from rat calcitonin receptor expressed in tk-ts 13 cells measured after 120 mins by scintillation proximity assay; type: cell-based; details: tk-ts13
Rattus norvegicus [22] = species on record: Rattus norvegicus; assay: Ratio of IC50 for displacement of [125I]-calcitonin from rat calcitonin receptor expressed in tk-ts 13 cells to IC50 for displacement of [125I]-amylin from rat AMY3R (CTR+RAMP3) expressed in BHK-13 cells; type: cell-based

Insulin (Homo sapiens), sequence (P01308 whole entry): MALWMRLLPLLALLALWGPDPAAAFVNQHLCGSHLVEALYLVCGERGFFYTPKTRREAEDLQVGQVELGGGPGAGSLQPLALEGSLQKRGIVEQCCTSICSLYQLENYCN

Row | EC50 [1] | EC50 [2] | EC50 [3] | EC50 [4] | solubility [6] | solubility [7] | solubility [8] | solubility [9] | solubility [10] | solubility [11] | solubility [12] | solubility [13] | TIME (Insulin (Homo sapiens) [14]) | Activity (Insulin (Homo sapiens) [15]) | Compound | Ratio EC50 (Homo sapiens) | Ratio EC50 (Rattus norvegicus [5]) | Activity (Rattus norvegicus [16]) | Activity (Rattus norvegicus [17]) | also measured
1 | 129 pM | 205 pM | 277 pM | 1340 pM | 200 µM (≈ 923 µg/mL) | 200 µM (≈ 923 µg/mL) | 200 µM (≈ 923 µg/mL) | 200 µM (≈ 923 µg/mL) | 200 µM (≈ 923 µg/mL) | 200 µM (≈ 923 µg/mL) | 200 µM (≈ 923 µg/mL) | 200 µM (≈ 923 µg/mL) | 2 h | 0% | CC[C@H](C)[C@H](NC(=O)[C@@H]1CCCN1C(=O)CNC(=O)[C@H](Cc1ccccc1)NC(=O)[C@H](CC(N)=O)NC(=O)[C@H](CC(N)=O)NC(=O)[C@H](CO)NC(=O)[C@H](CO)NC(=O)[C@H](Cc1cnc[nH]1)NC(=O)[C@H](Cc1cnc[nH]1)NC(=O)[C@H](CC(C)C)NC(=O)[C@H](Cc1ccccc1)NC(=O)[C@H](CCC(=O)O)NC(=O)[C@H](C)NC(=O)[C@H](CC(C)C)NC(=O)[C@H](CCCNC(=N)N)NC(=O)[C@H](CCC(N)=O)NC(=O)[C@@H](NC(=O)[C@H](C)NC(=O)[C@@H]1CSSC[C@H](NC(=O)[C@H](CCCNC(=N)N)NC(=O)CC[C@H](NC(=O)CC[C@H](NC(=O)CCCCCCCCCCCCCCCCCCC(=O)O)C(=O)O)C(=O)O)C(=O)N[C@@H](CC(N)=O)C(=O)N[C@@H]([C@@H](C)O)C(=O)N[C@@H](C)C(=O)N[C@@H]([C@@H](C)O)C(=O)N1)[C@@H](C)O)C(=O)N[C@@H](CC(C)C)C(=O)N1CCC[C@H]1C(=O)N1CCC[C@H]1C(=O)N[C@H](C(=O)N[C@@H](CC(N)=O)C(=O)N[C@H](C(=O)NCC(=O)N[C@@H](CO)C(=O)N[C@@H](CC(N)=O)C(=O)N[C@H](C(=O)N[C@@H](Cc1ccc(O)cc1)C(N)=O)[C@@H](C)O)C(C)C)[C@@H](C)O ({C20 diacid-γGlu-γGlu}-RCNTATCATQRLAEFLHHSSNNFGPILPPTNVGSNTY-NH2; disulfide 2-7) | 2 | 5 | 46% | 39% | 
2 | 100 pM | 447 pM |  |  | 200 µM (≈ 895 µg/mL) | 200 µM (≈ 895 µg/mL) |  |  |  |  |  |  | 45 h | 85% | CC[C@H](C)[C@H](NC(=O)[C@@H]1CCCN1C(=O)CNC(=O)[C@H](Cc1ccccc1)NC(=O)[C@H](CC(N)=O)NC(=O)[C@H](CC(N)=O)NC(=O)[C@H](CO)NC(=O)[C@H](CO)NC(=O)[C@H](Cc1c[nH]cn1)NC(=O)[C@H](CCCNC(=N)N)NC(=O)[C@H](CC(C)C)NC(=O)[C@H](Cc1ccccc1)NC(=O)[C@H](CCC(=O)O)NC(=O)[C@H](C)NC(=O)[C@H](CC(C)C)NC(=O)[C@H](CCCNC(=N)N)NC(=O)[C@H](CCC(N)=O)NC(=O)[C@@H](NC(=O)[C@H](C)NC(=O)[C@@H]1CSSC[C@H](NC(=O)[C@H](CCCCN)NC(=O)CC[C@H](NC(=O)CCCCCCCCCCCCCCCCCCC(=O)O)C(=O)O)C(=O)N[C@@H](CC(N)=O)C(=O)N[C@@H]([C@@H](C)O)C(=O)N[C@@H](C)C(=O)N[C@@H]([C@@H](C)O)C(=O)N1)[C@@H](C)O)C(=O)N[C@@H](CC(C)C)C(=O)N1CCC[C@H]1C(=O)N1CCC[C@H]1C(=O)N[C@H](C(=O)N[C@@H](CC(N)=O)C(=O)N[C@H](C(=O)NCC(=O)N[C@@H](CO)C(=O)N[C@@H](CC(N)=O)C(=O)N[C@H](C(=O)N[C@@H](Cc1ccc(O)cc1)C(N)=O)[C@@H](C)O)C(C)C)[C@@H](C)O ({C20 diacid-γGlu}-KCNTATCATQRLAEFLRHSSNNFGPILPPTNVGSNTY-NH2; disulfide 2-7) | 4 | 0.5 | 30% | 8% | IC50 [18]: 350 pM; IC50 [19]: 811 pM; IC50 [20]: 532 pM; IC50 [21]: 2060 pM; Ratio IC50 (Rattus norvegicus [22]): 4
3 | 96 pM | 157 pM | 261 pM | 1290 pM | 200 µM (≈ 962 µg/mL) | 200 µM (≈ 962 µg/mL) | 200 µM (≈ 962 µg/mL) | 200 µM (≈ 962 µg/mL) | 57 µM (≈ 274 µg/mL) | 2 µM (≈ 9.62 µg/mL) | 1 µM (≈ 4.81 µg/mL) | 3 µM (≈ 14.4 µg/mL) | 3 h | 14% | CC[C@H](C)[C@H](NC(=O)[C@@H]1CCCN1C(=O)CNC(=O)[C@H](Cc1ccccc1)NC(=O)[C@H](CC(N)=O)NC(=O)[C@H](CC(N)=O)NC(=O)[C@H](CO)NC(=O)[C@H](CO)NC(=O)[C@H](Cc1cnc[nH]1)NC(=O)[C@H](Cc1cnc[nH]1)NC(=O)[C@H](CC(C)C)NC(=O)[C@H](Cc1ccccc1)NC(=O)[C@H](CCC(=O)O)NC(=O)[C@H](C)NC(=O)[C@H](CC(C)C)NC(=O)[C@H](CCCNC(=N)N)NC(=O)[C@H](CCC(N)=O)NC(=O)[C@@H](NC(=O)[C@H](C)NC(=O)[C@@H]1CSSC[C@H](NC(=O)[C@H](Cc2cnc[nH]2)NC(=O)[C@H](Cc2cnc[nH]2)C(=O)NC(=O)[C@H](Cc2cnc[nH]2)NC(=O)CC[C@H](NC(=O)CCCCCCCCCCCCCCCCCCC(=O)O)C(=O)O)C(=O)N[C@@H](CCCNC(=N)N)C(=O)N[C@@H]([C@@H](C)O)C(=O)N[C@@H](C)C(=O)N[C@@H]([C@@H](C)O)C(=O)N1)[C@@H](C)O)C(=O)N[C@@H](CC(C)C)C(=O)N1CCC[C@H]1C(=O)N1CCC[C@H]1C(=O)N[C@H](C(=O)N[C@@H](CC(N)=O)C(=O)N[C@H](C(=O)NCC(=O)N[C@@H](CO)C(=O)N[C@@H](CC(N)=O)C(=O)N[C@H](C(=O)N[C@@H](Cc1ccc(O)cc1)C(N)=O)[C@@H](C)O)C(C)C)[C@@H](C)O ({C20 diacid-γGlu}-[X1]HCRTATCATQRLAEFLHHSSNNFGPILPPTNVGSNTY-NH2; disulfide 3-8) | 2 | 5 | 26% | 5% | 
